# Where a SMILES comes first, the peptide text is derived from it. Bridges are numbered along the chain shown (N, C = ends). [ ]: non-standard residue; d: D form. Hyp = O=C(O)[C@@H]1C[C@@H](O)CN1; Pen = CC(C)(S)[C@H](N)C(=O)O; dDab = NCC[C@@H](N)C(=O)O; Dab = NCC[C@H](N)C(=O)O
# Assays:
# [1] = test system: E. coli ATCC 25922 LptA Q62L mutant; test: microbe, parasite or virus in culture; conditions: for MIC E. coli ATCC 25922 Q62L mutant: CLSI method, clone harboring LptA Q62L
# Description: (§1) MIC assays [Clinical and Laboratory Standards Institute (CLSI) methodology] and serial passage studies were performed as described by Luther et al. ([6]). […] Resistant mutants were isolated, and their MIC values were determined and sent to Microbes NG (Birmingham, United Kingdom) for whole-genome sequencing and bioinformatic analysis.
# [2] = test system: K. pneumoniae NCTC 13443 (NDM-1) (parent / WT); test: microbe, parasite or virus in culture
# Description: as §1
# [3] = test system: K. pneumoniae ATCC 43816 (parent / WT); test: microbe, parasite or virus in culture
# Description: as §1
# [4] = test system: E. coli ATCC 25922 (parent / WT); test: microbe, parasite or virus in culture
# Description: as §1
# [5] = test system: K. pneumoniae NCTC 13443 (NDM-1) LptA Q62L mutant; test: microbe, parasite or virus in culture; conditions: for MIC K. pneumoniae NCTC 13443 (NDM-1) Q62L mutant: CLSI method, clone harboring LptA Q62L
# Description: as §1
# Plasma protein binding [6] = assay type: in vitro ADME, human; conditions: human, plasma, pH 7.5
# Description: (§2) After ultrafiltration, protein binding was determined by subtracting the percentage of compound in ultrafiltrate from the total amount of compound in spiked plasma (table S4A).
# human red blood cells = test: Haemolysis; assay type: cell-based; conditions: PBS-washed human red blood cells; 1 h at 200 mg/liter, 37°C; OD 540 nm; versus 100% lysis control 2.5% Triton X-100; biological replicates
# Description: To test their hemolytic potential, compounds were incubated in the presence of phosphate-buffered saline (PBS)–washed human red blood cells. After 1-hour incubation at 200 mg/liter and 37°C, the samples were centrifuged (3220g), the supernatants were diluted in Dulbecco’s PBS, and optical density at 540 nm was determined. The hemolysis induced by the compound was calculated versus a 100% lysis control prepared with 2.5% Triton X-100 (table S4A).
# in vitro = assay type: cell-based; conditions: human
# Description: The cytotoxicity of compounds was determined by determining the number of viable cells using the Sigma Cell Counting Kit-8 (WST-8). HeLa cells were incubated at 37°C and 5% CO2 for 24 hours, after which the medium was replaced with fresh medium containing dilutions of compounds. […]
# Plasma protein binding [7] = assay type: in vitro ADME, mouse; conditions: mouse, plasma, pH 7.5
# Description: as §2
# [8] = test system: Klebsiella pneumoniae NCTC 13443 LptA I36S mutant; test: microbe, parasite or virus in culture; conditions: Table S9 panel
# Description: as §1
# [9] = test system: Klebsiella pneumoniae ATCC 43816 LptA I36S mutant; test: microbe, parasite or virus in culture; conditions: Table S9 panel
# Description: as §1
# [10] = test system: K. pneumoniae ATCC 43816 LptA Q62L mutant; test: microbe, parasite or virus in culture
# Description: as §1
# [11] = test system: Klebsiella pneumoniae ATCC 43816 LapB mutant; test: microbe, parasite or virus in culture; conditions: Table S9 panel; other mutation
# Description: as §1
# [12] = test system: Escherichia coli ATCC 25922 KdsD mutant; test: microbe, parasite or virus in culture; conditions: Table S9 panel; other mutation
# Description: as §1
# [13] = test system: Escherichia coli ATCC 25922 LptA E84D mutant; test: microbe, parasite or virus in culture; conditions: Table S9 panel
# Description: as §1
# [14] = test system: Klebsiella pneumoniae NCTC 13443 LpxC, LpxD mutant; test: microbe, parasite or virus in culture; conditions: Table S9 panel; other mutation
# Description: as §1
# [15] = test system: Klebsiella pneumoniae ATCC 43816 PglJ, PhnJ, ThiH mutant; test: microbe, parasite or virus in culture; conditions: Table S9 panel; other mutation
# Description: as §1
# [16] = test system: Klebsiella pneumoniae NCTC 13443 YejM mutant; test: microbe, parasite or virus in culture; conditions: Table S9 panel; other mutation
# Description: as §1
# [17] = test system: Klebsiella pneumoniae ATCC 43816 LptA L116Q mutant; test: microbe, parasite or virus in culture; conditions: Table S9 panel
# Description: as §1
# [18] = test system: Klebsiella pneumoniae ATCC 43816 LptA I36N mutant; test: microbe, parasite or virus in culture; conditions: Table S9 panel
# Description: as §1
# [19] = test system: K. pneumoniae 968733 (CST-R); test: MIC assay (CLSI); assay type: cell-based, Klebsiella pneumoniae; conditions: CLSI method; colistin-resistant strain
# Description: as §1
# E. coli = assay type: cell-based, Escherichia coli; conditions: serial passage in broth at sub-MIC and multiples of the MIC
# Description: as §1
# (§3) Fig. S8. Resistance development studies by serial passage. Broth containing a single antibiotic at sub-MIC and multiples of the MIC were inoculated with bacteria. Drug concentrations were […]
# (§4) day 1 and 2 of passaging.
# (§5) (1 picture or pasted object on this page, not shown here)
# [20] = test system: panel of 121 Enterobacteriaceae including CRE, MDR, and XDR isolates; test: organism not typed; conditions: CLSI microdilution method; 121 isolates
# Description: as §1
# [21] = test system: Enterobacteriaceae (CS, Col-S) (n=22); assay type: cell-based; conditions: CLSI microdilution; minimum and maximum MIC of the panel; carbapenem sensitive, colistin sensitive
# Description: as §1
# K. pneumoniae = assay type: cell-based, Klebsiella pneumoniae; conditions: serial passage in broth at sub-MIC and multiples of the MIC
# Description: as §1, §3, §4, §5
compound,measurement,setting,value
CC[C@H](C)[C@H](NC(=O)[C@@H](NC(=O)[C@@H]1C[C@@H](O)CN1C(=O)[C@@H](N)C(C)C)[C@@H](C)CC)C(=O)N[C@@H](Cc1ccc(O)cc1)C(=O)N[C@@H]1C(=O)N[C@@H](CC(N)=O)C(=O)N[C@@H](CCCNC(=N)N)C(=O)N[C@@H](CCN)C(=O)N[C@@H]([C@@H](C)O)C(=O)N[C@H](CCN)C(=O)N[C@@H](CCCCN)C(=O)N[C@H](C(=O)N[C@@H](CCN)C(=O)N[C@@H](CCCNC(=N)N)C(=O)N[C@@H](Cc2ccc(O)cc2)C(=O)O)CSSC1(C)C [Compound 4] (H-V[Hyp]IIY[Pen]NR[Dab]T[dDab]KC[Dab]RY-OH; disulfide 6-13),MIC E. coli ATCC 25922 Q62L mutant,[1],0.25 micrograms per milliliter
same,MIC K. pneumoniae NCTC 13443 (NDM-1) Parent,"[2]; CLSI method, parent strain",1 micrograms per milliliter
same,MIC K. pneumoniae ATCC 43816 Parent,[3]; ATCC 43816,0.25 micrograms per milliliter
same,MIC E. coli ATCC 25922 Parent,"[4]; CLSI method, parent strain",0.063 micrograms per milliliter
same,MIC K. pneumoniae NCTC 13443 (NDM-1) Q62L mutant,[5],4 micrograms per milliliter
same,"fraction unbound at 30 min, 10 mg/liter",Plasma protein binding [6],0.09
same,Haemolysis % at 0.2 g/L,human red blood cells,0%
same,IC50 at 48 h,in vitro,536 µM
same,"fraction unbound at 30 min, 10 mg/liter",Plasma protein binding [7],0.14
Colistin,MIC Klebsiella pneumoniae NCTC 13443 LptA I36S (2x),[8],0.13 µg/mL
same,MIC Klebsiella pneumoniae ATCC 43816 LptA I36S (1x),[9],0.13 µg/mL
same,MIC E. coli ATCC 25922 Q62L mutant,[1],0.25 micrograms per milliliter
same,MIC Escherichia coli ATCC 25922 LptA Q62L (7x),[1]; Table S9 panel,0.13 µg/mL
same,MIC Klebsiella pneumoniae NCTC 13443 WT,"[2]; Table S9 panel, WT",0.25 µg/mL
same,MIC K. pneumoniae ATCC 43816 Q62L mutant,"[10]; CLSI method, clone harboring LptA Q62L",0.125 micrograms per milliliter
same,MIC Klebsiella pneumoniae ATCC 43816 LptA Q62L (4x),[10]; Table S9 panel,0.13 µg/mL
same,MIC Klebsiella pneumoniae ATCC 43816 LapB (1x),[11],0.13 µg/mL
same,MIC Escherichia coli ATCC 25922 KdsD (2x),[12],0.25 µg/mL
same,MIC K. pneumoniae ATCC 43816 Parent,"[3]; CLSI method, parent strain",0.125 micrograms per milliliter
same,MIC Klebsiella pneumoniae ATCC 43816 WT,"[3]; Table S9 panel, WT",0.13 µg/mL
same,MIC Escherichia coli ATCC 25922 LptA E84D (1x),[13],0.25 µg/mL
same,MIC Escherichia coli ATCC 25922 WT,"[4]; Table S9 panel, WT",0.25 µg/mL
same,MIC K. pneumoniae NCTC 13443 (NDM-1) Q62L mutant,[5],0.125 micrograms per milliliter
same,MIC Klebsiella pneumoniae NCTC 13443 LptA Q62L (5x),[5]; Table S9 panel,0.13 µg/mL
same,"MIC Klebsiella pneumoniae NCTC 13443 LpxC, LpxD (1x)",[14],0.25 µg/mL
same,"MIC Klebsiella pneumoniae ATCC 43816 PglJ, PhnJ, ThiH (1x)",[15],0.13 µg/mL
same,MIC Klebsiella pneumoniae NCTC 13443 YejM (1x),[16],0.25 µg/mL
same,MIC Klebsiella pneumoniae ATCC 43816 LptA L116Q (1x),[17],0.13 µg/mL
same,MIC Klebsiella pneumoniae ATCC 43816 LptA I36N (1x),[18],≤ 0.06 µg/mL
same,MIC K. pneumoniae 968733 (CST-R) Parent,[19],>8 micrograms per milliliter
same,"Development of resistance, day of passaging, E. coli",E. coli,5 to 7 days
same,MIC50 (n=121),[20],0.13 µg/mL
same,MIC90 (n=121),[20],> 8 µg/mL
same,"MIC range Enterobacteriaceae (CS, Col-S) (n=22)",[21],0.06 to 0.5 µg/mL
same,"Development of resistance, day of passaging, K. pneumoniae",K. pneumoniae,1 to 3 days

# Source: paper PMC10208570, “Peptidomimetic antibiotics disrupt the lipopolysaccharide transport bridge of drug-resistant Enterobacteriaceae” (Science Advances, 2023)
